Laboratory results taken from publication PMC13316043, “Structural basis of NSD2 degradation via targeted recruitment of SCF-FBXO22” (Nature Communications, 2026).

Tested on: His-tagged NSD2 PWWP1
Assay: TR-FRET cooperativity (competition) assay: displacement of biotinylated NSD2 ligand UNC7096
Format: binding, human
Source text: Because of the direct interactions observed between FBXO22 and NSD2, we hypothesized that some degree of cooperative binding could facilitate complex stabilization. Therefore, we developed a TR-FRET assay to monitor the interaction between his-tagged NSD2 and a biotinylated NSD2 ligand, UNC7096, that is missing the modality for FBXO22-recruitment (Supplementary Fig. 3D)[20]. Given the positive FRET signal observed when both NSD2 PWWP1 and UNC7096 are present, we used this setup to evaluate the displacement of UNC7096 by UNC10088 in the presence or absence of the FBXO22 FIST domain (Supplementary Fig. 3D). […] Importantly, this FBXO22-dependent enhancement of NSD2 antagonism by UNC10088 was absent when C326 was substituted for alanine (Supplementary Fig. 3F). Taken together, the SCF^FBXO22-NSD2 PWWP1 structure both confirms prior results and provides additional insight into the surfaces that contribute to a cooperative interaction between NSD2 and FBXO22 to promote potent NSD2 polyubiquitination and degradation.
The TR-FRET assay was adapted to assess cooperativity from the following workflows previously reported[39],[40]. Assays were performed in white, low-volume, flat-bottom, nonbinding 384-well microplates (Greiner, Catalog No. 784904) with a final assay volume of 10 μL per well. The assay buffer contained 20 mM Tris–HCl (pH 7.5) and 150mM NaCl, 0.05% Tween-20 (v/v), 2mM DTT, and 1% DMSO (v/v). LANCE Europium (Eu)-W8044 Streptavidin conjugate (2 nM) and LANCE Ultra ULight-anti6x-His labeled antibodies (10 nM) were used as donor and acceptor fluorophores associated with the tracer ligand and protein, respectively. Final assay concentrations of 63 nM His-tagged NSD2 PWWP1 and 31 nM of UNC7096 (a biotinylated version of the NSD2 ligand) as a tracer ligand were used for compound testing. UNC8732, UNC10088, and UNC10415667 were diluted in a 10-point, 3-fold serial dilution, and indicated compounds were pre-incubated with FBXO22 FIST for 30 min. A master mix of NSD2 PWWP1, UNC7096, and TR-FRET reagents was made prior to its addition to the compounds and/or FBXO22 FIST. The plates were sealed with metallic covers, mixed gently for 1 min, and incubated in the dark for 1 h. After 1 h, the plate was read on an EnVision 2103 plate reader with a 320 nm excitation filter and 615 nm/ 665 nm emission filters simultaneously with a dual mirror D400/D630 and a 100 μs delay. […] Raw TR-FRET signals were normalized to a high inhibition control (10 μM of UNC10088) and negative control (1% DMSO). The normalized TR-FRET signals were plotted against the compound concentrations. […] Ki values were calculated from the IC50s using the tight-binding model[41],[42]. The cooperativity factor (α) was calculated as the ratio of Ki (Binary)/ Ki (Ternary), with α > 1 indicating positive cooperativity between NSD2 PWWP1 and FBXO22 FIST based on its disruption of NSD2 binding to UNC7096.

SMILES: O=C1COc2cc(C(=O)N(Cc3ccc(C(=O)Nc4ccc5c(c4)CCN(C(=O)CCCCC(O)S(=O)(=O)O)C5)cc3)C3CC3)ccc2N1 (stereo not drawn) [UNC10088]
- fold reduction of IC50 upon addition of FBXO22 (IC50 alone vs with FBXO22 FIST): about 2.5 fold
- cooperativity factor (α) = Ki (Binary)/Ki (Ternary) (NSD2 PWWP1 with vs without FBXO22 FIST, with preincubation): 3.3
- cooperativity factor (α) without preincubation (compound not preincubated with FBXO22): 3.1
